Data taken from patent US20230022157A1 (Achillion Pharmaceuticals, Inc., priority 2018, published 2023).

What follows are compounds tested against T1, Human Factor D (Homo sapiens, UniProt P00746) (assay: Human Factor D Assay). Conditions: Human Factor D 80 nM, substrate Z-L-Lys-SBzl; Table 2; read-out: IC50 (Stars).
T1 construct: purified from human serum; purchased Complement Technology, Inc; host or cells: human serum (natural protein, not recombinant)
Format: biochemical
Experimental: Human Factor D (purified from human serum, Complement Technology, Inc.) at 80 nM final concentration is incubated with test compound at various concentrations for 5 min at room temperature in 50 mM Tris, 1M NaCl, pH 7.5. A synthetic substrate Z-L-Lys-SBzl and DTNB (Ellman's reagent) are added to final concentrations of 100 μM each. […] IC50 values are calculated by nonlinear regression of complement Factor D reaction rates as a function of test compound concentration.

T1 sequence (P00746 26-253): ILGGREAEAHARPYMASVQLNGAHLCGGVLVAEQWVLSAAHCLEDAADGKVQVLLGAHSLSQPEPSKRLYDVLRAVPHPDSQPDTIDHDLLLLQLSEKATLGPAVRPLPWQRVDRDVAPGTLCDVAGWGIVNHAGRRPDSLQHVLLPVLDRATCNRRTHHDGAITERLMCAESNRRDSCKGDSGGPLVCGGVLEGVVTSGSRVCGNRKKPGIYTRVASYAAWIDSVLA

Compound	IC50
CC(=O)c1nn(CC(=O)N2[C@H](C(=O)NCCn3cccn3)C[C@@]3(C)C[C@@H]23)c2c(C)cc(-c3cnc(C)nc3)cc12 [Compound 102, (1R,3S,5R)-2-{2-[3-acetyl-7-methyl-5-(2-methylpyrimidin-5-yl)indazol-1-yl]acetyl}-5-methyl-N-[2-(pyrazol-1-yl)ethyl]-2-azabicyclo[3.1.0]hexane-3-carboxamide]	< 1000 nM
CC(=O)c1nn(CC(=O)N2[C@H](C(=O)Nc3nc(C(F)(F)F)ccc3C)C[C@@]3(C)C[C@@H]23)c2ccc(-c3cnc4cc(C)nn4c3)cc12 [Compound 212, (1R,3S,5R)-2-(2-(3-acetyl-5-(2-methylpyrazolo[1,5-a]pyrimidin-6-yl)-1H-indazol-1-yl)acetyl)-5-methyl-N-(3-methyl-6-(trifluoromethyl)pyridin-2-yl)-2-azabicyclo[3.1.0]hexane-3-carboxamide]	< 1000 nM
CC(=O)c1cn(CC(=O)N2C[C@H]3C[C@H]3[C@H]2C(=O)Nc2nc(Br)c(F)cc2C)c2c(C)cc(-c3cnc(CO)nc3)cc12 [Compound 83, (1R,2S,5S)-3-(2-(3-acetyl-5-(2-(hydroxymethyl)pyrimidin-5-yl)-7-methyl-11H-indol-1-yl)acetyl)-N-(6-bromo-5-fluoro-3-methylpyridin-2-yl)-3-azabicyclo[3.1.0]hexane-2-carboxamide]	< 1000 nM
CC(=O)c1nn(CC(=O)N2[C@H](C(=O)NCCc3cc[nH]n3)C[C@@]3(C)C[C@@H]23)c2c(C)cc(-c3cnc(C)nc3)cc12 [Compound 106, (1R,3S,5R)-2-{2-[3-acetyl-7-methyl-5-(2-methylpyrimidin-5-yl)indazol-1-yl]acetyl}-5-methyl-N-[2-(1H-pyrazol-3-yl)ethyl]-2-azabicyclo[3.1.0]hexane-3-carboxamide]	< 1000 nM
CC(=O)c1nn(CC(=O)N2[C@H](C(=O)Nc3nc(Br)ccc3C)C[C@@]3(C)C[C@@H]23)c2c(C)cc(-c3cnc(C(N)=O)nc3)cc12 [Compound 53, (1R,3S,5R)-2-(2-(3-acetyl-5-(2-carbamoylpyrimidin-5-yl)-7-methyl-1H-indazol-1-yl)acetyl)-N-(6-bromo-3-methylpyridin-2-yl)-5-methyl-2-azabicyclo[3.1.0]hexane-3-carboxamide]	< 1000 nM
COC(=O)c1ncc(-c2cc(C)c3c(c2)c(C(C)=O)nn3CC(=O)N2[C@H](C(=O)Nc3nc(C(F)(F)F)ccc3C)C[C@@]3(C)C[C@@H]23)cn1 [Compound 50, Methyl 5-(3-acetyl-7-methyl-1-(2-((1R,3S,5R)-5-methyl-3-((3-methyl-6-(trifluoromethyl)pyridin-2-yl)carbamoyl)-2-azabicyclo[3.1.0]hexan-2-yl)-2-oxoethyl)-1H-indazol-5-yl)pyrimidine-2-carboxylate]	< 1000 nM
CC(=O)c1nn(CC(=O)N2[C@H](C(=O)Nc3nc(Br)ccc3C)C[C@@]3(C)C[C@@H]23)c2c(C)cc(-c3cnc(C(C)(C)O)nc3)cc12 [Compound 41, (1R,3S,5R)-2-(2-(3-acetyl-5-(2-(2-hydroxypropan-2-yl)pyrimidin-5-yl)-7-methyl-1H-indazol-1-yl)acetyl)-N-(6-bromo-3-methylpyridin-2-yl)-5-methyl-2-azabicyclo[3.1.0]hexane-3-carboxamide]	< 1000 nM
CC(=O)c1cn(CC(=O)N2[C@H](C(=O)Nc3nc(C(F)(F)F)ccc3C)C[C@@]3(C)C[C@@H]23)c2c(C)cc(-c3cnc4cc(CF)nn4c3)cc12 [Compound 228, (1R,3S,5R)-2-(2-(3-acetyl-5-(2-(fluoromethyl)pyrazolo[1,5-a]pyrimidin-6-yl)-7-methyl-1H-indol-1-yl)acetyl)-5-methyl-N-(3-methyl-6-(trifluoromethyl)pyridin-2-yl)-2-azabicyclo[3.1.0]hexane-3-carboxamide]	< 1000 nM
CC(=O)c1nn(CC(=O)N2[C@H](C(=O)Nc3nc(Br)c(F)cc3C)C[C@@]3(C)C[C@@H]23)c2c(C)cc(-c3cnc(C(C)(C)O)nc3)cc12 [Compound 68, (1R,3S,5R)-2-(2-(3-acetyl-5-(2-(2-hydroxypropan-2-yl)pyrimidin-5-yl)-7-methyl-1H-indazol-1-yl)acetyl)-N-(6-bromo-5-fluoro-3-methylpyridin-2-yl)-5-methyl-2-azabicyclo[3.1.0]hexane-3-carboxamide]	< 1000 nM
COCc1ncc(-c2cc(C)c3c(c2)c(C(C)=O)nn3CC(=O)N2[C@H](C(=O)Nc3nc(Br)ccc3C)C[C@@]3(C)C[C@@H]23)cn1 [Compound 60, (1R,3S,5R)-2-(2-(3-acetyl-5-(2-(methoxymethyl)pyrimidin-5-yl)-7-methyl-11H-indazol-1-yl)acetyl)-N-(6-bromo-3-methylpyridin-2-yl)-5-methyl-2-azabicyclo[3.1.0]hexane-3-carboxamide]	< 1000 nM
COC(=O)c1ncc(-c2cc(C)c3c(c2)c(C(C)=O)nn3CC(=O)N2[C@H](C(=O)Nc3cncc(Br)n3)C[C@@]3(C)C[C@@H]23)cn1 [Compound 42, Methyl 5-(3-acetyl-1-(2-((1R,3S,5R)-3-((6-bromopyrazin-2-yl)carbamoyl)-5-methyl-2-azabicyclo[3.1.0]hexan-2-yl)-2-oxoethyl)-7-methyl-1H-indazol-5-yl)pyrimidine-2-carboxylate]	< 1000 nM
CC(=O)c1nn(CC(=O)N2[C@H](C(=O)Nc3nc(Br)c(F)cc3C)C[C@@]3(C)C[C@@H]23)c2c(C)cc(-c3cnc(CO)cn3)cc12 [Compound 131, (1R,3S,5R)-2-(2-(3-acetyl-5-(5-(hydroxymethyl)pyrazin-2-yl)-7-methyl-1H-indazol-1-yl)acetyl)-N-(6-bromo-5-fluoro-3-methylpyridin-2-yl)-5-methyl-2-azabicyclo[3.1.0]hexane-3-carboxamide]	< 1000 nM
CC(=O)c1cn(CC(=O)N2[C@H](C(=O)Nc3nc(C(F)(F)F)ccc3C)C[C@@]3(C)C[C@@H]23)c2c(C)cc(-c3cnc4cc(CO)nn4c3)cc12 [Compound 226, (1R,3S,5R)-2-(2-(3-acetyl-5-(2-(hydroxymethyl)pyrazolo[1,5-a]pyrimidin-6-yl)-7-methyl-1H-indol-1-yl)acetyl)-5-methyl-N-(3-methyl-6-(trifluoromethyl)pyridin-2-yl)-2-azabicyclo[3.1.0]hexane-3-carboxamide]	< 1000 nM
CC(=O)c1cn(CC(=O)N2[C@H]3CC[C@H](C3)[C@H]2C(=O)Nc2nc(Br)ccc2C)c2c(C)cc(-c3cnc(C)nc3)cc12 [Compound 178, (1S,3S,4R)-2-(2-(3-acetyl-7-methyl-5-(2-methylpyrimidin-5-yl)-1H-indol-1-yl)acetyl)-N-(6-bromo-3-methylpyridin-2-yl)-2-azabicyclo[2.2.1]heptane-3-carboxamide]	< 1000 nM
CC(=O)c1nn(CC(=O)N2[C@H](C(=O)Nc3cnc(C)c(Br)n3)C[C@@]3(C)C[C@@H]23)c2c(C)cc(-c3cnc(CO)nc3)cc12 [Compound 94, (1R,3S,5R)-2-(2-(3-acetyl-5-(2-(hydroxymethyl)pyrimidin-5-yl)-7-methyl-1H-indazol-1-yl)acetyl)-N-(6-bromo-5-methylpyrazin-2-yl)-5-methyl-2-azabicyclo[3.1.0]hexane-3-carboxamide]	< 1000 nM
CC(=O)c1nn(CC(=O)N2[C@H](C(=O)Nc3nc(Br)ccc3C)C[C@@]3(C)C[C@@H]23)c2c(C)cc(-c3cnc([C@H](C)O)nc3)cc12 (single isomer, unassigned) [Compound 141]	< 1000 nM
CC(=O)c1nn(CC(=O)N2[C@H](C(=O)Nc3nc(Br)ccc3C)C[C@@]3(C)C[C@@H]23)c2c(C)cc(-c3cncc(S(C)(=O)=O)c3)cc12 [Compound 129, (1R,3S,5R)-2-(2-(3-Acetyl-7-methyl-5-(5-(methylsulfonyl)pyridin-3-yl)-1H-indazol-1-yl)acetyl)-N-(6-bromo-3-methylpyridin-2-yl)-5-methyl-2-azabicyclo[3.1.0]hexane-3-carboxamide]	< 1000 nM
CC(=O)c1nn(CC(=O)N2C[C@H]3C[C@H]3[C@H]2C(=O)Nc2nc(Br)ccc2C)c2ccc(-c3cncc(S(N)(=O)=O)c3)cc12 [Compound 69, (1R,2S,5S)-3-(2-(3-Acetyl-5-(5-sulfamoylpyridin-3-yl)-1H-indazol-1-yl)acetyl)-N-(6-bromo-3-methylpyridin-2-yl)-3-azabicyclo[3.1.0]hexane-2-carboxamide]	< 1000 nM
CC(=O)c1nn(CCN2C[C@H](F)C[C@H]2C(=O)Nc2cccc(Br)n2)c2ccc(-c3cnc(C)nc3)cc12 [Compound 139, (2S,4R)-1-(2-(3-acetyl-5-(2-methylpyrimidin-5-yl)-1H-indazol-1-yl)ethyl)-N-(6-bromopyridin-2-yl)-4-fluoropyrrolidine-2-carboxamide]	> 10000 nM
CC(=O)c1nn(CC(=O)N2[C@H](C(=O)NCC3(C)CCCCC3)C[C@@]3(C)C[C@@H]23)c2c(C)cc(-c3cnc(C)nc3)cc12 [Compound 90, (1R,3S,5R)-2-{2-[3-acetyl-7-methyl-5-(2-methylpyrimidin-5-yl)indazol-1-yl]acetyl}-5-methyl-N-[(1-methylcyclohexyl)methyl]-2-azabicyclo[3.1.0]hexane-3-carboxamide]	< 1000 nM
CC(=O)c1nn(CC(=O)N2[C@H](C(=O)Nc3nc(Br)ccc3C)C[C@@]3(C)C[C@@H]23)c2c(C)cc(-c3cnc(F)nc3)cc12 [Compound 59, (1R,3S,5R)-2-(2-(3-acetyl-5-(2-fluoropyrimidin-5-yl)-7-methyl-1H-indazol-1-yl)acetyl)-N-(6-bromo-3-methylpyridin-2-yl)-5-methyl-2-azabicyclo[3.1.0]hexane-3-carboxamide]	< 1000 nM
Cc1ncc(-c2cc3c(C(N)=O)nn(CC(=O)N4C[C@H]5C[C@H]5[C@H]4C(=O)Nc4nc(Br)c(F)cc4C)c3c(C)n2)cn1 [Compound 111, 1-{2-[2-(6-Bromo-5-fluoro-3-methyl-pyridin-2-ylcarbamoyl)-3-aza-bicyclo[3.1.0]hex-3-yl]-2-oxo-ethyl}-7-methyl-5-(2-methyl-pyrimidin-5-yl)-1H-pyrazolo[3,4-c]pyridine-3-carboxylic acid amide]	< 1000 nM
